Results as given in patent publication EP4700040A1, “PEPTIDE AND LUMINESCENT COMPLEX CONTAINING SAME” (Shenzhen Loggene Life Science & Technology Co., Ltd., priority 2023, dated 2024).

How the values were obtained:
Type in all cases: biochemical, human
[1] = system: PCT; experiment: Complementary activity of small subunits mutated at conserved positions, Furimazine substrate (Example 6); details: MBP-PCT 3.3 ng/ml, supernatant; for activity (luminescence signal value), 3 min: 3 min after Furimazine 25 µM; for activity (luminescence signal value), 6 min: 6 min after Furimazine 25 µM
Experimental: Detection Methods: • (1) The concentration of large subunit-rSCFV5 fusion protein was diluted to 12.5 nM, and 15 µl was added per well; • (2) MBP-PCT fusion protein was diluted to 3.3 ng/ml with PBSAD, and 10 µl was added per well; • (3) HB2151 strain containing plasmids with different small subunit sequences were induced by IPTG at 30°C overnight, then treated with polymyxin B for 1.5h, and centrifuged to collect the supernatant, and 2.5µl supernatant was added per well; • (4) The above three components were slightly mixed, incubated at 37°C for 7 min, and Obuffer 6.37-3 containing Furimazine at a concentration of 25 µM was added, […], the luminescence signal value was detected using a bioluminescence detector; and • (5) Clones with RLU higher than 10,000 were picked. The substrate was replaced with CTZ-h substrate for retesting (Obuffer 6.37-3 containing CTZ-h at a concentration of 25 µM was added, and after 60 s, the luminescence signal value was detected using a bioluminescence detector), and a PBSAD control was added to test the signal-to-noise ratio.
In order to further determine whether these three conserved amino acid sequences were changed, this example constructed a random mutation library of these three positions, with a theoretical diversity of 8,000 and a library capacity of 10^6, and 2,000 single clones were picked. The method of protein induction and expression was the same as that in Example 1. The complementary activity was tested in the same manner as that in Example 4, but the signal-to-noise ratio was not retested with CTZ-h. Clones with different activity were randomly picked for sequencing.

[2] = system: PCT; experiment: Luciferase dual-antibody complementary activation assay for PCT detection, clone supernatants, retest with CTZ-h (Example 1); details: for Signal-to-noise ratio: RLU antigen+/RLU antigen-, MBP-PCT 3.3 ng/ml, CTZ-h; for PCT+: luminescence signal value with MBP-PCT 3.3 ng/ml, large subunit-rSCFV5 50 nM, supernatant; for PCT+ / PCT-: retest CTZ-h 25 µM, read after 60 s; for PCT-: luminescence signal value, background control PBSAD without PCT
Experimental: In order to improve the signal-to-noise ratio and complementary activity of the luciferase dual-antibody complementary activation assay, a series of complementary luciferase small subunits were prepared in this example. Large subunit-rSCFV5 fusion protein (SEQ ID NO: 87) was kept unchanged, and the small subunit sequence of the rSCFV18-small subunit P114 fusion protein (SEQ ID NO: 88) was modified by semi-randomization to prepare rSCFV18-small subunit mutant fusion proteins. Based on the sequence of small subunit P114, and with reference to the 3D structure of complementary luciferase, computer-aided sequence design was employed to generate a library with a theoretical diversity of 2.49*10^6. Primers were designed for PCR amplification using the plasmid pComb3x of rSCFV18-small subunit P114 fusion protein as a template. Subsequently, an expression vector library was constructed by means of restriction digestion and ligation (SfiI, NheI), and a semi-random amino acid mutation library was introduced into the small subunit position and transformed into HB2151 competent cells, yielding a library capacity of 7.6*10^9. The 100 plates were spread, and 9,500 single clones were picked and inoculated into 600 µL of 2YTA medium, followed by incubation at 37°C with shaking at 250 rpm for 2 h. When the bacterial density reached approximately OD600 = 0.6~1.0, IPTG was then added to a final concentration of 1 mM, and the culture was further incubated at 30°C with shaking at 250 rpm for 20 h. The next day, the bacteria were collected by centrifugation at 4°C, 4,500g for 10min. The supernatant was discarded, and the precipitate was resuspended with 200µl of PBS containing polymyxin B at a final concentration of 20,000 u/ml. The suspension was incubated at room temperature with shaking at 100rpm for 1h, and then centrifuged at 4500g for 10min, and the supernatant was used for the test.
Test Methods: • (1) The concentration of large subunit-rSCFV5 fusion protein was diluted to 50 nM, and 15 µl was added per well; • (2) MBP-PCT fusion protein was diluted to 3.3 ng/ml with PBSAD, and 15 µl was added per well. The background control was PBSAD, and 10 µl was added per well; • (3) HB2151 strain containing expression plasmids with different small subunit were induced by 1 mM of IPTG at 30°C overnight, then treated with polymyxin B for 1.5 h, and centrifuged to collect the supernatant, and 2.5 µl supernatant was added per well; • (4) The above three components were slightly mixed, incubated at 37°C for 7 min, and Obuffer 6.37-3 containing Furimazine at a concentration of 25 µM was added, and after 80 s, the luminescence signal value was detected using a bioluminescence detector; and • (5) Clones with RLU higher than 10,000 and a signal-to-noise ratio (RLU antigen+/RLU antigen-) higher than that of the rSCFV18-small subunit P114 fusion protein were selected for retesting. The substrate was replaced with CTZ-h for retesting. Obuffer 6.37-3 containing CTZ-h at a concentration of 25 µM was added, and after 60 s, the luminescence signal value was detected using a bioluminescence detector.

[3] = system: PCT; experiment: Second library screening for PCT detection, clone supernatants, retest with CTZ-h (Example 4)
Experimental: In order to further improve the signal-to-noise ratio and complementary activity of the luciferase dual-antibody complementary activation assay, novel complementary luciferase small subunits were prepared in this example. Large subunit-rSCFV5 fusion protein (SEQ ID NO: 87) was kept unchanged, and the small subunit sequence of the rSCFV18-RB073 fusion protein (SEQ ID NO: 89) were modified by semi-randomization. The theoretical diversity was 6912, the library capacity was 10^6, and 3,000 single clones were picked. The method of protein induction and expression was the same as that in Example 2.
Detection Methods: • (1) The concentration of large subunit-rSCFV5 fusion protein was diluted to 12.5 nM, and 15 µl was added per well; • (2) MBP-PCT fusion protein was diluted to 3.3 ng/ml with PBSAD, and 10 µl was added per well; • (3) HB2151 strain containing plasmids with different small subunit sequences were induced by IPTG at 30°C overnight, then treated with polymyxin B for 1.5h, and centrifuged to collect the supernatant, and 2.5µl supernatant was added per well; • (4) The above three components were slightly mixed, incubated at 37°C for 7 min, and Obuffer 6.37-3 containing Furimazine at a concentration of 25 µM was added, and after 3 min, the luminescence signal value was detected using a bioluminescence detector; and • (5) Clones with RLU higher than 10,000 were picked. The substrate was replaced with CTZ-h substrate for retesting (Obuffer 6.37-3 containing CTZ-h at a concentration of 25 µM was added, and after 60 s, the luminescence signal value was detected using a bioluminescence detector), and a PBSAD control was added to test the signal-to-noise ratio.

[4] = system: PCT; experiment: Sensitivity and linear range for PCT detection of preferred small subunits (Example 5); details: for luminescence value: normalized
Experimental: Detection Methods: • (1) The concentration of large subunit-rSCFV5 fusion protein was diluted with PBSA to 8.3~25nM, and 15µl was added per well; • (2) MBP-PCT fusion proteins were diluted with PBSAD in a downward gradient starting from 2.5 µg/ml, and 10 µl was added per well; • (3) The rSCFV18-small subunit mutant-containing fusion protein was diluted with PBSA to 30~180 nM, and 15 µl was added per well; • (4) The above three components were slightly mixed, incubated at 37°C for 15 min, and Obuffer 6.37-3 containing CTZ-h at a concentration of 15 µM was added, and the luminescence signal value was immediately detected using a bioluminescence detector (the luminescence value was normalized);

| Signal-to-noise ratio [2] | PCT+ [2] | PCT- [2] | Sequence | activity (luminescence signal value), 3 min [1] | activity (luminescence signal value), 6 min [1] | further results |
| --- | --- | --- | --- | --- | --- | --- |
|  |  |  | AEGYRLFDRKS [RD-045] | 2398 | 2087 |  |
| 40 | 37150 | 906 | VEGYRLFKREL [RB152] |  |  |  |
| 25.7 | 109352 | 4101 | VEGYRLFERKS [RB033] |  |  |  |
|  |  |  | AEGYRLFDRKS [RD-012] | 3586 | 2963 |  |
|  |  |  | AEGYRLFDRKS [RD-086] | 3394 | 3222 |  |
|  |  |  | IEGYRLFDRKS [RD-084] | 2497 | 2394 |  |
| 31.3 | 57092 | 1769 | VEGYRLFERIW [RB113] |  |  |  |
| 33.6 | 33103 | 957 | VEGYRLFDRKL [RB212] |  |  |  |
| 32.1 | 53945 | 1630 | VEGYRLFERVL [RB150] |  |  |  |
|  |  |  | AEGYHLFRSKS [RD-108] | 50 | 53 |  |
| 34.7 | 39231 | 1099 | VEGYRLFNRKW [RB223] |  |  |  |
|  |  |  | AESYKLFDRKS [RD-100] | 44 | 214 |  |
| 21 | 95553 | 4346 | VEGYRLFERKS [RB097] |  |  |  |
| 22.6 | 101765 | 4316 | VEGYRLFNRVS [RB027] |  |  |  |
| 35 | 44654 | 1242 | VEGYRLFERKW [RB276] |  |  |  |
|  |  |  | VEPYKLFDRKS [RD-098] | 214 | 49 |  |
| 20.2 | 55355 | 2605 | VEGYRLFNRVG [RB122] |  |  |  |
| 31.6 | 58318 | 1790 | VEGYRLFERKW [RB035] |  |  |  |

| Signal-to-noise ratio [2] | PCT+ [2] | PCT- [2] | Sequence | activity (luminescence signal value), 3 min [1] | activity (luminescence signal value), 6 min [1] | further results |
| --- | --- | --- | --- | --- | --- | --- |
| 36.9 | 41446 | 1094 | VEGYRLFEKVW [RB172] |  |  |  |
| 35.3 | 50183 | 1384 | VEGYRLFERIW [RB240] |  |  |  |
| 30.8 | 41519 | 1307 | VEGYRLFNEKS [RB195] |  |  |  |
| 45.1 | 27190 | 590 | VEGYRLFDRKW [RB186] |  |  |  |
|  |  |  | IEGYRLFDRKS [RD-092] | 4905 | 4539 |  |
| 33.6 | 37398 | 1080 | VEGYRLFDRKL [RB209] |  |  |  |
| 25.2 | 74319 | 2837 | VEGYRLFERKL [RB157] |  |  |  |
| 38.8 | 26168 | 658 | VEGYRLFDRVW [RB128] |  |  |  |
|  |  |  | VEGYHLFDRKS [RD-103] | 211 | 204 |  |
| 20.3 | 70963 | 3324 | VEGYRLFNRKS [RB252] |  |  |  |
|  |  |  | VSGYRLFDKKW [RC-099] |  |  | Signal-to-noise ratio ([3]; PCT+/PCT-, MBP-PCT 3.3 ng/ml, CTZ-h): 7.0; PCT+ ([3]; luminescence signal value with MBP-PCT 3.3 ng/ml, large subunit-rSCFV5 12.5 nM, CTZ-h 25 µM, 60 s): 8149; PCT- ([3]; luminescence signal value, PBSAD control without PCT, large subunit-rSCFV5 12.5 nM, CTZ-h 25 µM, 60 s): 1164; luminescence value ([4]; PCT 0.0, background): 5000; luminescence value ([4]; PCT 1 (pg/ml)): 5106; luminescence value ([4]; PCT 3 (pg/ml)): 5166; luminescence value ([4]; PCT 10 (pg/ml)): 5453; luminescence value ([4]; PCT 30 (pg/ml)): 5950; luminescence value ([4]; PCT 100 (pg/ml)): 7470; luminescence value ([4]; PCT 1000 (pg/ml)): 28688; luminescence value ([4]; PCT 10000 (pg/ml)): 243815; luminescence value ([4]; PCT 100000 (pg/ml)): 1744023; luminescence value ([4]; PCT 250000 (pg/ml)): 2942238; Signal-to-noise ratio at 1000 pg/ml ([4]; large subunit 8.3~25 nM, small subunit fusion 30~180 nM, CTZ-h 15 µM): 5.7 |
| 45.2 | 17891 | 387 | VEGYRLHEKIS [RA128] |  |  |  |
| 25.7 | 92160 | 3449 | VEGYRLFNKKS [RB054] |  |  |  |
|  |  |  | AEPYRIFDRKS [RD-099] | 221 | 52 |  |
| 21 | 79060 | 3587 | VEGYRLFEKKL [RB149] |  |  |  |
|  |  |  | VEPYKLFDRKS [RD-104] | 215 | 222 |  |
| 27.1 | 76733 | 2735 | VEGYRLFNRKS [RB075] |  |  |  |
